Assay results from patent publication US7317007B2, “Benzothiazole derivatives with activity as adenosine receptor ligands” (Hoffmann-La Roche Inc., priority 2000, dated 2008).
Where a name gives a salt, the structure may show the parent alone.

Target: T1, human adenosine A2A receptor (Homo sapiens, UniProt P29274)
T1 construct: expressed in transfected cells; host or cells: CHO cells, Semliki Forest virus expression system; washed membrane pellet used
Test: [3H]-SCH-58261 binding assay at the human adenosine A2A receptor
Details: read-out: pKi value (converted)
Method: Human Adenosine A2A Receptor
The human adenosine A2A receptor was recombinantly expressed in chinese hamster ovary (CHO) cells using the semliki forest virus expression system. Cells were harvested, washed twice by centrifugation, homogenised and again washed by centrifugation. The final washed membrane pellet was suspended in a Tris (50 mM) buffer containing 120 mM NaCl, 5 mM KCl, 2 mM CaCl2 and 10 mM MgCl2 (pH 7.4) (buffer A). The [^3H]-SCH-58261 (Dionisotti et al., 1997, Br J Pharmacol 121, 353; 1 nM) binding assay was carried out in 96-well plates in the presence of 2.5 μg of membrane protein, 0.5 mg of Ysi-poly-1-lysine SPA beads and 0.1 U adenosine deaminase in a final volume of 200 μl of buffer A. Non-specific binding was defined using xanthine amine congener (XAC; 2 μM). Compounds were tested at 10 concentrations from 10 μM-0.3 nM. All assays were conducted in duplicate and repeated at least two times. Assay plates were incubated for 1 hour at room temperature before centrifugation and then bound ligand determined using a Packard Topcount scintillation counter. IC50 values were calculated using a non-linear curve fitting program and Ki values calculated using the Cheng-Prussoff equation.

T1 sequence (P29274 whole entry): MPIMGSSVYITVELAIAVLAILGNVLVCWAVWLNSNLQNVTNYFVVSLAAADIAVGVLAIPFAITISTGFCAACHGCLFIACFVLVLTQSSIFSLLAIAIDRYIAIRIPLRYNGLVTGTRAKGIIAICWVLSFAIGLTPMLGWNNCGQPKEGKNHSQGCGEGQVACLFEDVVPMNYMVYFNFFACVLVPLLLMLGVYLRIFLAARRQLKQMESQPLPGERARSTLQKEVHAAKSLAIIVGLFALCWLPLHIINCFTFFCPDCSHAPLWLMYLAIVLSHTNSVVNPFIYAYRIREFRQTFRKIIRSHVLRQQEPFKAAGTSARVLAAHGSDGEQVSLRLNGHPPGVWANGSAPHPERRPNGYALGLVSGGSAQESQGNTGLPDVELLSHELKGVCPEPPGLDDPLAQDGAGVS

Ki	Structure (SMILES)
2 nM	COc1ccc(-c2csc(N3CCN(C)CC3)n2)c2sc(NC(=O)c3ccc(F)cc3)nc12 [Example 221, 4-Fluoro-N-{4-methoxy-7-[2-(4-methyl-piperazin-1-yl)-thiazol-4-yl]-benzothiazol-2-yl}-benzamide]
2.51 nM	COc1ccc(N2CCSCC2)c2sc(NC(=O)c3ccccc3)nc12 [Example 317, N-(4-Methoxy-7-thiomorpholin-4-yl-benzothiazol-2-yl)-benzamide]
1 nM	COc1ccc(-c2ccccc2)c2sc(NC(=O)c3ccc(C)o3)nc12 [Example 10, 5-Methyl-furan-2-carboxylic acid (4-methoxy-7-phenyl-benzothiazol-2-yl)-amide]
3.16 nM	COc1ccc(N2CCOCC2)c2sc(NC(=O)C3CCN(C(C)=O)CC3)nc12 [Example 327, 1-Acetyl-piperidine-4-carboxylic acid (4-methoxy-7-morpholin-4-yl-benzothiazol-2-yl)-amide]
3.16 nM	CCN(CCOC)Cc1cc(C(=O)Nc2nc3c(OC)ccc(N4CCOCC4)c3s2)ccc1Cl [Example 278, 4-Chloro-3-{[ethyl-(2-methoxy-ethyl)-amino]-methyl}-N-(4-methoxy-7-morpholin-4-yl-benzothiazol-2-yl)-benzamide]
1.58 nM	COCCNCc1ccc(C(=O)Nc2nc3c(OC)ccc(-c4ccccc4)c3s2)cc1 [Example 91, 4-[(2-Methoxy-ethylamino)-methyl]-N-(4-methoxy-7-phenyl-benzothiazol-2-yl)-benzamide hydrochloride salt (1:1)]
1.26 nM	COc1ccc(-c2ccccc2)c2sc(NC(=O)c3ccc(CNCCO)cc3)nc12 [Example 92, 4-[(2-Hydroxy-ethylamino)-methyl]-N-(4-methoxy-7-phenyl-benzothiazol-2-yl)-benzamide hydrochloride salt (1:1)]
3.16 nM	COCCN(C)Cc1cccc(C(=O)Nc2nc3c(OC)ccc(N4CCOCC4)c3s2)c1 [Example 287, 3-{[(2-Methoxy-ethyl)-methyl-amino]-methyl}-N-(4-methoxy-7-morpholin-4-yl-benzothiazol-2-yl)-benzamide]

System: not given
Test: not given
Details: not given

melting point	Structure (SMILES)
242 to 250 °C	COc1ccc(-c2cccs2)c2sc(NC(=O)c3ccc(F)cc3)nc12 [Example 220, 4-Fluoro-N-(4-methoxy-7-thiophen-2-yl-benzothiazol-2-yl)-benzamide]
179 to 181 °C	COc1ccc(-c2csc(C)n2)c2sc(NC(=O)N3CCN(C)CC3)nc12 [Example 267, 4-Methyl-piperazine-1-carboxylic acid [4-methoxy-7-(2-methyl-thiazol-4-yl)-benzothiazol-2-yl]-amide]
175 to 182 °C (dec.)	COc1ccc(-c2cccs2)c2sc(NC(=O)N3CCOCC3)nc12 [Example 263, Morpholine-4-carboxylic acid (4-methoxy-7-thiophen-2-yl-benzothiazol-2-yl)-amide]
138 °C (dec.)	COc1ccc(-c2csc(N3CCN(C)CC3)n2)c2sc(NC(=O)c3ccc(F)cc3)nc12 [Example 221, 4-Fluoro-N-{4-methoxy-7-[2-(4-methyl-piperazin-1-yl)-thiazol-4-yl]-benzothiazol-2-yl}-benzamide]
262 to 264 °C	COc1ccc(-c2csc(N)n2)c2sc(NC(=O)c3ccc(F)cc3)nc12 [Example 217, N-[7-(2-Amino-thiazol-4-yl)-4-methoxy-benzothiazol-2-yl]-4-fluoro-benzamide]
150 to 170 °C	COc1ccc(-c2csc(N3CCN(C)CC3)n2)c2sc(NC(=O)N3CCOCC3)nc12 [Example 261, Morpholine-4-carboxylic acid {4-methoxy-7-[2-(4-methyl-piperazin-1-yl)-thiazol-4-yl]-benzothiazol-2-yl}-amide]
138 to 142 °C	CCOC(=O)C(=O)Nc1nc2c(OC)ccc(-c3ccccc3)c2s1 [Example 47, N-(4-Methoxy-7-phenyl-benzothiazol-2-yl)-oxalamic acid ethyl ester]
130 to 146 °C	COc1ccc(-c2ccc(C)s2)c2sc(NC(=O)c3ccc(CCl)cc3)nc12 [Example 234, 4-Chloromethyl-N-[4-methoxy-7-(5-methyl-thiophen-2-yl)-benzothiazol-2-yl]-benzamide]
225 to 227 °C	COc1ccc(-c2csc(N3CCOCC3)n2)c2sc(NC(=O)c3ccc(F)cc3)nc12 [Example 216, 4-Fluoro-N-[4-methoxy-7-(2-morpholin-4-yl-thiazol-4-yl)-benzothiazol-2-yl]-benzamide]
217 to 219 °C	COc1ccc(-c2csc(C)n2)c2sc(NC(=O)c3ccc(F)cc3)nc12 [Example 224, 4-Fluoro-N-[4-methoxy-7-(2-methyl-thiazol-4-yl)-benzothiazol-2-yl]-benzamide]
173 to 180 °C (dec.)	COc1ccc(-c2ccc(C)s2)c2sc(NC(=O)N3CCOCC3)nc12 [Example 264, Morpholine-4-carboxylic acid [4-methoxy-7-(5-methyl-thiophen-2-yl)-benzothiazol-2-yl]-amide]
150 °C (dec.)	COc1ccc(-c2csc(-c3ccccn3)n2)c2sc(NC(=O)c3ccc(F)cc3)nc12 [Example 222, 4-Fluoro-N-[4-methoxy-7-(2-pyridin-2-yl-thiazol-4-yl)-benzothiazol-2-yl]-benzamide]
83 to 90 °C	COCCN(C)Cc1ccc(C(=O)Nc2nc3c(OC)ccc(-c4ccc(C)s4)c3s2)cc1 [Example 243, 4-{[(2-Methoxy-ethyl)-methyl-amino]-methyl}-N-[4-methoxy-7-(5-methyl-thiophen-2-yl)-benzothiazol-2-yl]-benzamide]
119 to 128 °C	COCCN(C)Cc1ccc(C(=O)Nc2nc3c(OC)ccc(-c4csc(NC(c5ccccc5)(c5ccccc5)c5ccccc5)n4)c3s2)cc1 [Example 236, 4-{[(2-Methoxy-ethyl)-methyl-amino]-methyl}-N-{4-methoxy-7-[2-(trityl-amino)-thiazol-4-yl]-benzothiazol-2-yl}-benzamide]
140 to 145 °C	COCCN(C)Cc1ccc(C(=O)Nc2nc3c(OC)ccc(-c4csc(C)n4)c3s2)cc1 [Example 242, 4-{[(2-Methoxy-ethyl)-methyl-amino]-methyl}-N-[4-methoxy-7-(2-methyl-thiazol-4-yl)-benzothiazol-2-yl]-benzamide]
140 to 145 °C	COc1ccc(-c2csc(C)n2)c2sc(NC(=O)c3ccc(CCl)cc3)nc12 [Example 233, 4-Chloromethyl-N-[4-methoxy-7-(2-methyl-thiazol-4-yl)-benzothiazol-2-yl]-benzamide]
192 to 196 °C (dec.)	COc1ccc(-c2ccc(C)s2)c2sc(NC(=O)c3ccc(F)cc3)nc12 [Example 225, 4-Fluoro-N-[4-methoxy-7-(5-methyl-thiophen-2-yl)-benzothiazol-2-yl]-benzamide]
195 to 201 °C	COc1ccc(-c2csc(-c3ccccn3)n2)c2sc(NC(=O)c3ccc(CCl)cc3)nc12 [Example 232, 4-Chloromethyl-N-[4-methoxy-7-(2-pyridin-2-yl-thiazol-4-yl)-benzothiazol-2-yl]-benzamide]
163 °C (dec.)	COc1ccc(-c2csc(NC(c3ccccc3)(c3ccccc3)c3ccccc3)n2)c2sc(NC(=O)c3ccc(CCl)cc3)nc12 [Example 229, 4-Chloromethyl-N-{4-methoxy-7-[2-(trityl-amino)-thiazol-4-yl]-benzothiazol-2-yl}-benzamide]
197 to 204 °C (dec.)	COc1ccc(-c2ccc(C)s2)c2sc(NC(=O)N3CCC(O)CC3)nc12 [Example 266, 4-Hydroxy-piperidine-1-carboxylic acid [4-methoxy-7-(5-methyl-thiophen-2-yl)-benzothiazol-2-yl]-amide]
85 to 95 °C	COCCN(C)Cc1ccc(C(=O)Nc2nc3c(OC)ccc(-c4csc(N(C)C)n4)c3s2)cc1 [Example 239, N-[7-(2-Dimethylamino-thiazol-4-yl)-4-methoxy-benzothiazol-2-yl]-4-{[(2-methoxy-ethyl)-methyl-amino]-methyl}-benzamide]
195 to 215 °C	COc1ccc(-c2csc(N3CCCC3)n2)c2sc(NC(=O)c3ccnc(C)c3)nc12 [Example 255, N-[4-Methoxy-7-(2-pyrrolidin-1-yl-thiazol-4-yl)-benzothiazol-2-yl]-2-methyl-isonicotinamide]
183 to 209 °C (dec.)	COc1ccc(-c2cccs2)c2sc(NC(=O)c3ccc(CCl)cc3)nc12 [Example 231, 4-Chloromethyl-N-(4-methoxy-7-thiophen-2-yl-benzothiazol-2-yl)-benzamide]
227 to 234 °C	COc1ccc(-c2csc(N3CCCCC3)n2)c2sc(NC(=O)N3CCOCC3)nc12 [Example 262, Morpholine-4-carboxylic acid [4-methoxy-7-(2-piperidin-1-yl-thiazol-4-yl)-benzothiazol-2-yl]-amide]
230 to 250 °C	COc1ccc(-c2csc(-c3ccc(C)nc3)n2)c2sc(NC(=O)c3ccc(CCl)cc3)nc12 [Example 228, 4-Chloromethyl-N-{4-methoxy-7-[2-(6-methyl-pyridin-3-yl)-thiazol-4-yl]-benzothiazol-2-yl}-benzamide]
218 to 220 °C	COc1ccc(-c2csc(N(C)C)n2)c2sc(NC(=O)c3ccc(F)cc3)nc12 [Example 219, N-[7-(2-Dimethylamino-thiazol-4-yl)-4-methoxy-benzothiazol-2-yl]-4-fluoro-benzamide]
